The text below walks through data of US20250347685A1, “DONOR-ACCEPTOR CONJUGATED OLIGOELECTROLYTES FOR CELL LABELLING AND METHODS THEREOF” (National University of Singapore, priority 2021, published 2025).

A short description of data set [1]: COE intercalation into lipid bilayer of SUVs, emission measured with a fluorimeter. It counts as physicochemical. The following applies: in PBS. How it is done: Liposomes were prepared using the protocol as follows. Phospholipids (ex. POPC, POPE, and POPG) in chloroform solution were mixed to a proper molar ratio and dried under a gentle stream of nitrogen. The dried lipids were further desiccated in a vacuum overnight to obtain a thin lipid film. For preparing small unilamellar vesicles (SUVs), rehydration of the dried film was carried out by adding phosphate buffered saline (PBS) to a concentration of 5 mg mL-1, followed by incubation at 35° C. for 2 h under constant stirring at ˜300 rpm. Then, the vesicles were extruded using a 100 nm membrane at 45° C. 21 times to obtain SUV samples. Vesicles were kept at 4° C. until further use.
When mixing the SUVs with COE-BT, the COE will intercalate into the lipid bilayers. This is spontaneously driven by the electrostatic and hydrophobic interactions between the COEs and the lipids. As a result, a significant emission enhancement is observed. For example, relative to the COE-BT solution, the emission intensity of the SUV and COE-BT complexes increases more than 400 times between 600 to 630 nm. […] By adjusting different chemical structures, the COEs can achieve different emission wavelengths, ranging from “green”, “red”, to even “infrared” (FIGS. 14 & 15). The various color choices confer COE dyes with high compatibility in using multiple dyes concurrently.

Data set [2] can be described thus: Dynamic light scattering of liposome size and uniformity after COE addition. It is filed as physicochemical. The settings on record: 10 μM COE into 1 mg/mL SUV samples. How it is done:
To identify whether COE treatment will alter the morphology of liposomes (e.g., inducing the fusion or fission of liposomes), dynamic light scattering (DLS) measurements with a lipid SUV model were employed (FIG. 16). The SUVs were obtained after extrusion using a 100 nm membrane. […] After addition of 10 μM COE-BBT into the 1 mg/mL SUV samples, the Z-average size is 104.8±32.65 nm with a PDI of 0.054.

The next data set relates to SW480 exosomes. Put plainly: NanoAnalyzer (NanoFCM) flow analysis of dye-labelled SW480 exosomes and dye only controls. The settings on record: for % Positive for dye: after purifying excess dyes using ultracentrifugation; for Number of particle counts, positive / Number of particle counts, total: dye only controls. As for the experimental part: In another example, exosomes isolated from SW480 colon cancer cell lines and purified using size exclusion chromatography were kindly provided by NanoFCM (UK). The labelling and flow cytometry analysis were also carried out by the trained technicians at NanoFCM (UK). […] The mixture was left to incubate at room temperature for 30 min and then diluted 100 times using PBS before analysis on the NanoAnalyzer (NanoFCM). Detection of the exosomes was carried out on the small threshold settings (68-155 S16M-Exo) and analysis of the labelled population was done on the PC5 channel (Ex488/Em670). Dye control samples were prepared by replacing the 9 μL exosome solution with PBS, followed by the same steps as the exosome samples for flow analysis. The results were validated through at least two replicates. In a separate experiment, the labelled exosomes were also purified of excess dyes using standard ultracentrifugation methods before analyzing as per described above.

In a further data set the test system is HCT 116 Exosomes. In words: Flow cytometry of exosomes labelled with COE compound. As for the experimental part:
Exosome were prepared via the following protocol: Exosomes were purchased from ATCC, aliquoted and stored at −80° C. A single aliquot was removed from −80° C. and placed on ice. Exosomes were diluted 10 times in cell culture grade PBS. 8 μL of the exosome suspension was mixed with between […] of COE compound. This was placed on ice for 10-minutes before being diluted 100 times in PBS to an approximate final concentration of 6×10^6 particles/mL of exosomes and 25-1 nM of COE.
Samples were briefly vortexed and used for flow cytometry. Flow cytometry measurements were obtained by measuring the side scattering on the violet laser (x-axis) and by measuring fluorescent intensity (y-axis: λexcitation=405, 488 nm λemission=525, 690 nm). […] Using the COE compound, the exosomes can be stained with a low concentration of dye and can be used directly without additional purification.
(In flow cytometry, cells or beads pass a laser one at a time.)

The next data set relates to RBCs. Put plainly: Flow cytometry of COE-stained and unstained red blood cells mixed at various ratios. It counts as cell-based, Bovine. As for the experimental part: RBCs (isolated from Bovine whole blood, Innovative Research, Inc.) were diluted 10 times from stock into PBS and centrifuged at 3,000 RPM for 5 minutes. The supernatant was removed, and the pellet was resuspended in PBS. This was repeated for a total of 3 times. The final pellet was resuspended into PBS to be 1% by volume. […] COE compound was added to the RBC suspension and was allowed to incubate for 20 min at RT. The RBC COE compound mixture was then centrifuged again at 3,000 RPM for 5 min. The supernatant was removed and the pellet resuspended in fresh PBS. COE compound stained and unstained RBCs were respectively mixed at various ratios by volume of 0:5, 1:4, 2:3, 3:2, 4:1 and 5:0. The resulting RBC mixtures were diluted 100 times in PBS for flow cytometry experiments.

Another data set relates to Red blood cells. Put plainly: Flow cytometry of red blood cells from donor's blood labelled with dye. It is filed as cell-based. As for the experimental part: Red blood cells were obtained from donor's blood after removing the plasma via centrifugation. The RBC were either used fresh or stored for 22 days. […] The cells were incubated with the dyes for 10 min before centrifuging down at 700 g for 3 min to remove free dyes. The labelled cell pellet was then resuspended in 1 mL of PBS. The cells were then diluted 10× further in PBS before imaging on the 8-well ibidi chamber slides, and analysing for size and fluorescence on the flow cytometry (Cytoflex).

Consider `C[N+](C)(C)CCCCCCOc1cc(/C=C/c2ccc(-c3ccc(-c4c5c(c(-c6ccc(-c7ccc(/C=C/c8cc(OCCCCCC[N+](C)(C)C)c(OCCCCCC[N+](C)(C)C)c(OCCCCCC[N+](C)(C)C)c8)cc7)s6)c6nsnc46)N=S=N5)s3)cc2)cc(OCCCCCC[N+](C)(C)C)c1OCCCCCC[N+](C)(C)C` [COE-BBT], for which the “emission enhancement after mixing with SUVs (in words)” value in data set [1] is “same phenomenon is seen”. Besides, in data set [2], the “PDI of SUVs after COE addition” value came to 0.054 and the “Z-average size of SUVs after COE addition” value was found to be 104.8±32.65 nm.
On to `C[N+](C)(C)CCCCCCOc1cc(/C=C/c2ccc(-c3ccc(-c4ccc(-c5ccc(-c6ccc(/C=C/c7cc(OCCCCCC[N+](C)(C)C)c(OCCCCCC[N+](C)(C)C)c(OCCCCCC[N+](C)(C)C)c7)cc6)s5)c5nonc45)s3)cc2)cc(OCCCCCC[N+](C)(C)C)c1OCCCCCC[N+](C)(C)C.[Br-].[Br-].[Br-].[Br-].[Br-].[Br-]` [COE-BO], for which, in the data set on SW480 exosomes (10 uM), the “% Positive for dye” value was determined as 43.10%; the “Number of particle counts, positive” value amounted to 2; the “Number of particle counts, total” value is recorded as 181. Moreover, in the data set with SW480 exosomes (20 uM), the “% Positive for dye” value came out at 47.60%. For the same compound, the “Percentage + (positive events)” value in the data set with SW480 exosomes (labelled SW480 exosomes, 10 uM, N = 2) was 66.55%.
On to `C[N+](C)(C)CCCCCCOc1cc(/C=C/c2ccc(-c3ccc(-c4ccc(-c5ccc(-c6ccc(/C=C/c7cc(OCCCCCC[N+](C)(C)C)c(OCCCCCC[N+](C)(C)C)c(OCCCCCC[N+](C)(C)C)c7)cc6)s5)cc4)s3)cc2)cc(OCCCCCC[N+](C)(C)C)c1OCCCCCC[N+](C)(C)C.[I-].[I-].[I-].[I-].[I-].[I-]` [COE-Ben], for which, in the data set on HCT 116 Exosomes (Exosome + COE), the “% of events in Area of Interest” value amounted to 54.69%, the “All Events/μL” value is 6071.19 Events/μL and the “Area of Interest Events/μL” value was 3314.72 Events/μL. Moreover, in the data set with HCT 116 Exosomes (dye only, no exosomes), the “% of events in Area of Interest” value is reported as 6.72%, the “All Events/μL” value is on record as 1480.33 Events/μL and the “Area of Interest Events/μL” value is recorded as 99.48 Events/μL.
On to `C[N+](C)(C)CCCCCCOc1cc(/C=C/c2ccc(-c3ccc(-c4ccc(-c5ccc(-c6ccc(/C=C/c7cc(OCCCCCC[N+](C)(C)C)c(OCCCCCC[N+](C)(C)C)c(OCCCCCC[N+](C)(C)C)c7)cc6)cc5)cc4)cc3)cc2)cc(OCCCCCC[N+](C)(C)C)c1OCCCCCC[N+](C)(C)C.[I-].[I-].[I-].[I-].[I-].[I-]` [COE-Quin], for which, in the data set with HCT 116 Exosomes (Exosome + COE), the “% of events in Area of Interest” value was found to be 63.71%, the “All Events/μL” value stood at 6088.97 Events/μL and the “Area of Interest Events/μL” value was determined as 3878.99 Events/μL. Further, in the data set with HCT 116 Exosomes (dye only, no exosomes), the “% of events in Area of Interest” value is 7.98%, the “All Events/μL” value was found to be 1438.47 Events/μL and the “Area of Interest Events/μL” value was 114.78 Events/μL.
For the compound `C[N+](C)(C)CCCCCCOc1cc(/C=C/c2ccc(/C=C/c3ccc(/C=C/c4ccc(/C=C/c5ccc(/C=C/c6cc(OCCCCCC[N+](C)(C)C)c(OCCCCCC[N+](C)(C)C)c(OCCCCCC[N+](C)(C)C)c6)cc5)cc4)cc3)cc2)cc(OCCCCCC[N+](C)(C)C)c1OCCCCCC[N+](C)(C)C.[I-].[I-].[I-].[I-].[I-].[I-]` [COE-S6], the “% of events in Area of Interest” value with HCT 116 Exosomes (Exosome + COE) is reported as 63.67%; in the data set on HCT 116 Exosomes (dye only, no exosomes) it was 1.41%. Besides, the “All Events/μL” value in the data set with HCT 116 Exosomes (Exosome + COE) is reported as 5113.31 Events/μL; in the data set on HCT 116 Exosomes (dye only, no exosomes) it was 2909.37 Events/μL. Moreover, the “Area of Interest Events/μL” value amounted to 3255.41 Events/μL in the data set on HCT 116 Exosomes (Exosome + COE) and 41.08 Events/μL in the data set on HCT 116 Exosomes (dye only, no exosomes). In addition, the “RBC + COE-S6 Events/μL” value was 207.2 Events/μL with RBCs (stained to unstained RBCs 1:4); 312.27 Events/μL in the data set on RBCs (stained to unstained RBCs 2:3); 767.09 Events/μL in the data set with RBCs (stained to unstained RBCs 3:2); 1039.71 Events/μL with RBCs (stained to unstained RBCs 4:1); 450.48 Events/μL in the data set on RBCs (stained to unstained RBCs 5:0). Further, the “RBC Events/μL” value amounted to 891.58 Events/μL with RBCs (stained to unstained RBCs 1:4); 812.03 Events/μL in the data set on RBCs (stained to unstained RBCs 2:3); 470.71 Events/μL in the data set with RBCs (stained to unstained RBCs 3:2); 225.64 Events/μL in the data set on RBCs (stained to unstained RBCs 4:1); 2.98 Events/μL in the data set on RBCs (stained to unstained RBCs 5:0). For the same compound, the “total events/μL” value in the data set on RBCs (stained to unstained RBCs 1:4) worked out at 1098 events/μL; with RBCs (stained to unstained RBCs 2:3), 1124 events/μL; in the data set with RBCs (stained to unstained RBCs 3:2), 1237 events/μL; in the data set with RBCs (stained to unstained RBCs 4:1), 1265 events/μL; in the data set with RBCs (stained to unstained RBCs 5:0), 453 events/μL. The “artifact to the morphology of the RBC (FSC/SSC dot plots)” value in the data set on Red blood cells (1 μM COE-S6) is listed as “does not introduce an artifact”. In the data set with Red blood cells (histograms, FIG. 35 d-e), the “change in fluorescence of RBCs labelled with increasing dye concentrations” value was “increase in fluorescence”. In the data set on Red blood cells (versus Cell Mask Deep Red), the “homogeneity of RBC labelling (coefficient of variance of histogram data)” value is “more homogeneous and uniform”.
As for `CCCCCCCCCCCCCCCCCCCCCC[N+]1=C(/C=C/C=C2/N(CCCCCCCCCCCCCC)c3ccccc3C2(C)C)C(C)(C)c2ccccc21.[I-]` [PKH-26, reference compound], in the data set with SW480 exosomes (10 uM), the “% Positive for dye” value is reported as 22.00%; the “Number of particle counts, positive” value turned out to be 636; the “Number of particle counts, total” value amounted to 637. The “% Positive for dye” value in the data set with SW480 exosomes (20 uM) was 19.90%.
